Biological target: T1, Human Factor D (Homo sapiens, UniProt P00746)
T1 construct: purified from human serum; purchased Complement Technology, Inc; host or cells: human serum
Experiment: Human Factor D assay (Example 8)
Assay type: biochemical
Conditions: Table 3; Human Factor D 80 nM, substrate Z-L-Lys-SBzl; read-out: IC50 (Stars)
Procedure, shortened: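 Thioester cleavage assay: human Factor D (serum-derived, 80 nM final), substrate Z-L-Lys-SBzl with DTNB, both 100 μM final, after 5 min compound preincubation at room temperature.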

T1 sequence (P00746 26-253): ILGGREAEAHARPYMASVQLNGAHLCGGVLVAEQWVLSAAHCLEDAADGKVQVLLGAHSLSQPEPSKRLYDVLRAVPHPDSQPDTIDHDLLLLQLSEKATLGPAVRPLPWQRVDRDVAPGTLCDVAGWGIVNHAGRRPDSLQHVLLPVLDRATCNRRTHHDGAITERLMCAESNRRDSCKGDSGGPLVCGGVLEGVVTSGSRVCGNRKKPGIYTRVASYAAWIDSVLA

Row | SMILES | IC50 [nM]
1 | CC(=O)c1nn(CC(=O)N2C[C@H](F)C[C@H]2C(=O)Nc2cccc(-c3cccc4nc[nH]c34)c2F)c2ccccc12 [Compound 457, (2S,4R)-N-(3-(1H-benzo[d]imidazol-7-yl)-2-fluorophenyl)-1-(2-(3-acetyl-1H-indazol-1-yl)acetyl)-4-fluoropyrrolidine-2-carboxamide] | < 1000
2 | NC(=O)c1nn(CC(=O)N2C[C@H](F)C[C@H]2C(=O)Nc2cccc(-c3cc(Cl)c4nc[nH]c4c3)c2F)c2ccccc12 [Compound 458, 1-(2-((2S,4R)-2-(3-(4-chloro-1H-benzo[d]imidazol-6-yl)-2-fluorophenylcarb-amoyl)-4-fluoropyrrolidin-1-yl)-2-oxoethyl)-1H-indazole-3-carboxamide] | < 1000
3 | CC(=O)c1nn(CC(=O)N2C[C@H](F)C[C@H]2C(=O)Nc2cccc(-c3ccc4[nH]cnc4c3Cl)c2F)c2cnccc12 [Compound 459, (2S,4R)-1-(2-(3-acetyl-1H-pyrazolo[3,4-c]pyridin-1-yl)acetyl)-N-(3-(4-chloro-1H-benzo[d]imidazol-5-yl)-2-fluorophenyl)-4-fluoropyrrolidine-2-carboxamide] | < 1000
4 | CC(=O)c1cn(CC(=O)N2C[C@H](F)C[C@H]2C(=O)Nc2cccc(-c3ccc4[nH]cnc4c3Cl)c2F)c2ccccc12 [Compound 460, (2S,4R)-1-(2-(3-acetyl-1H-indol-1-yl)acetyl)-N-(3-(4-chloro-1H-benzo[d]imidazol-5-yl)-2-fluorophenyl)-4-fluoropyrrolidin-2-carboxamide] | < 1000
5 | CC(=O)c1nn(CC(=O)N2C[C@H](F)C[C@H]2C(=O)Nc2cccc(-c3ccc4[nH]cnc4c3Cl)c2F)c2ccccc12 [Compound 461, (2S,4R)-1-(2-(3-acetyl-1H-indazol-1-yl)acetyl)-N-(3-(4-chloro-1H-benzo[d]imidazol-5-yl)-2-fluorophenyl)-4-fluoropyrrolidin-2-carboxamide] | < 1000
6 | CC(=O)c1nn(CC(=O)N2[C@@H]3C[C@@H]3C[C@H]2C(=O)Nc2cccc(-c3ccc4[nH]cnc4c3Cl)c2F)c2ccccc12 [Compound 463, (1R,3S,5R)-2-(2-(3-acetyl-1H-indazol-1-yl)acetyl)-N-(3-(4-chloro-1H-benzo[d]imidazol-5-yl)-2-fluorophenyl)-2-azabicyclo[3.1.0] hexane-3-carboxamide] | < 1000

Further lines, results first:

Row | IC50 [nM] | SMILES
7 | < 1000 | CC(=O)c1nn(CC(=O)N2C[C@H](F)C[C@H]2C(=O)Nc2cccc(-c3ccc4c(c3)NCCC4)c2F)c2ccccc12 [Compound 450, (2S,4R)-1-(2-(3-Acetyl-1H-indazol-1-yl)acetyl)-4-fluoro-N-(2-fluoro-3-(1,2,3,4-tetrahydroquinolin-7-yl)phenyl)pyrrolidine-2-carboxamide]
8 | < 1000 | CC(=O)c1nn(CC(=O)N2C[C@H](F)C[C@H]2C(=O)Nc2cccc(-c3ccc4c(c3)CNCC4)c2F)c2ccccc12 [Compound 451, (2S,4R)-1-(2-(3-Acetyl-1H-indazol-1-yl)acetyl)-4-fluoro-N-(2-fluoro-3-(1,2,3,4-tetrahydroisoquinolin-7-yl)phenyl)pyrrolidine-2-carboxamide]
9 | < 1000 | O=C(NCc1cccc(Cl)c1F)[C@@H]1C[C@@H](F)CN1C(=O)Cn1cc(-c2cnco2)c2ccccc21 [Compound 452, (2S,4R)—N-(3-chloro-2-fluorobenzyl)-4-fluoro-1-(2-(3-(oxazol-5-yl)-1H-indol-1-yl)acetyl)pyrrolidine-2-carboxamide]
10 | < 1000 | C[C@@]12C[C@@H](C(=O)Nc3cccc(-c4ccc5nc[nH]c5c4Cl)c3F)N(C(=O)Cn3nc(C(N)=O)c4ccccc43)[C@@H]1C2 [Compound 453, 1-(2-((1R,3S,5R)-3-((3-(7-chloro-1H-benzo[d]imidazol-6-yl)-2-fluorophenyl)car-bamoyl)-5-methyl-2-azabicyclo[3.1.0]hexan-2-yl)-2-oxoethyl)-1H-indazole-3-carboxamide]
11 | < 1000 | CC(=O)c1nn(CC(=O)N2[C@@H]3C[C@@H]3C[C@H]2C(=O)Nc2cccc(-c3ccc4nc[nH]c4c3Cl)c2F)c2cnc(C)cc12 [Compound 454, (1R,3S,5R)-2-(2-(3-acetyl-5-methyl-1H-pyrazolo[3,4-c]pyridin-1-yl)acetyl)-N-(3-(7-chloro-1H-benzo[d]imidazol-6-yl)-2-fluorophenyl)-2-azabicyclo[3.1.0] hexane-3-carboxamide]
12 | < 1000 | CC(=O)c1nn(CC(=O)N2C[C@H](F)C[C@H]2C(=O)Nc2cccc(-c3ccc4nc[nH]c4c3F)c2F)c2ccccc12 [Compound 455, (2S,4R)-1-(2-(3-acetyl-1H-indazol-1-yl)acetyl)-4-fluoro-N-(2-fluoro-3-(7-fluoro-1H-benzo[d]imidazol-6-yl)phenyl)pyrrolidine-2-carboxamide]
13 | < 1000 | NC(=O)c1nn(CC(=O)N2C[C@H](F)C[C@H]2C(=O)Nc2cccc(-c3ccc4nc[nH]c4c3F)c2F)c2ccccc12 [Compound 456, 1-(2-((2S,4R)-4-fluoro-2-((2-fluoro-3-(7-fluoro-1H-benzo[d]imidazol-6-yl)phenyl)carba-moyl)pyrrolidin-1-yl)-2-oxoethyl)-1H-indazole-3-carboxamide]

From US10092584B2 (Achillion Pharmaceuticals, Inc., priority 2015, dated 2018)
